From ChEMBL document CHEMBL4837241, “Identification of Betulinic Acid Derivatives as Potent TGR5 Agonists with Antidiabetic Effects via Humanized TGR5H88Y Mutant Mice” (J Med Chem, 2021)
Calls of active or inactive are those of the source. No cut-off for these calls is given here.

Experiments:
[1] = biological target: T1, Bile acid receptor (Homo sapiens) (UniProt Q96RI1); assay: Agonist activity at human FXR (247 to 467 residues) expressed in HEK293 cells at 100 uM incubated for 8 hrs by luciferase assay; assay type: cell-based
T1 sequence (whole entry): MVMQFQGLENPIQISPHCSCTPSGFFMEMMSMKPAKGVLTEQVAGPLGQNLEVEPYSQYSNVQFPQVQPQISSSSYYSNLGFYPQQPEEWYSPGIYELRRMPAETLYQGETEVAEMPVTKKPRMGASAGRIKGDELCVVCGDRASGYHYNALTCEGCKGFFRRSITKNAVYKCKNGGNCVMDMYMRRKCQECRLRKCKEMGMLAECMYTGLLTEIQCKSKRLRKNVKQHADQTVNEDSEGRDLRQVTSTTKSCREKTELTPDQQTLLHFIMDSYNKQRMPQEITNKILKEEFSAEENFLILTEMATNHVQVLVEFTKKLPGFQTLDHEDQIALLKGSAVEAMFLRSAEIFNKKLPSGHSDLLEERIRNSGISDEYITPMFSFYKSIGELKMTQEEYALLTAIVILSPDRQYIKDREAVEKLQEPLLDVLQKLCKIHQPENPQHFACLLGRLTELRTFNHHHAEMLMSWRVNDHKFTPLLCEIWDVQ

[2] = biological target: T2, G-protein coupled bile acid receptor 1 (Homo sapiens) (UniProt Q8TDU6); assay: Agonist activity at N-terminal HA-tagged human TGR5 expressed in HEK293 cells assessed as […] in intracellular cAMP levels incubated for 30 mins by Lance Ultra cAMP assay relative to control; assay type: functional, cell-based; settings: filed as agonist
T2 sequence (whole entry): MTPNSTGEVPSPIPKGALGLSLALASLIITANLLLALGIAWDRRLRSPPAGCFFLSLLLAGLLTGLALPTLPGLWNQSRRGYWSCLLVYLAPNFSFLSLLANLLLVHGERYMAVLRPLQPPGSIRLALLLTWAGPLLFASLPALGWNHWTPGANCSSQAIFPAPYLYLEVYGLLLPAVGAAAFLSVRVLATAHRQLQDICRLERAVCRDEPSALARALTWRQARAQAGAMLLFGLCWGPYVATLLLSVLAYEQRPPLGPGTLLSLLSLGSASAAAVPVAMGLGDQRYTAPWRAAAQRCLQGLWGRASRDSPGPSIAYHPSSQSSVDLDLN

[3] = biological target: T3, G-protein coupled bile acid receptor 1 (Homo sapiens, UniProt Q8TDU6); assay: Agonist activity at N-terminal HA-tagged human TGR5 expressed in HEK293 cells assessed as […] in intracellular cAMP levels incubated for 30 mins by Lance Ultra cAMP assay; assay type: functional, cell-based
T3 sequence (Q8TDU6 whole entry): T2 sequence (whole entry)

[4] = biological target: T4, G-protein coupled bile acid receptor 1 (Mus musculus) (UniProt Q80SS6); assay: Agonist activity at N-terminal HA-tagged mouse TGR5 expressed in HEK293 cells assessed as […] in intracellular cAMP levels incubated for 30 mins by Lance Ultra cAMP assay relative to control; assay type: functional, cell-based; settings: filed as agonist
T4 sequence (whole entry): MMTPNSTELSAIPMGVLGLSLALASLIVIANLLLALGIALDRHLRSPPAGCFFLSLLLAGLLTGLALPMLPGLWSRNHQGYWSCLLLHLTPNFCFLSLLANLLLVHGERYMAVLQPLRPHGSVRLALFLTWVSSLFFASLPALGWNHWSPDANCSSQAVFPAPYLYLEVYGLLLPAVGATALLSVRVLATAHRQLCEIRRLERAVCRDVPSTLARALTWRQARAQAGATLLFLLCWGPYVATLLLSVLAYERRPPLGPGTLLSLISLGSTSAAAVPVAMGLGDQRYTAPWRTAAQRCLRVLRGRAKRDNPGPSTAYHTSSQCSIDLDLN

HEK293 = assay: Agonist activity at N-terminal HA-tagged dog TGR5 expressed in HEK293 cells assessed as […] in intracellular cAMP levels incubated for 30 mins by Lance Ultra cAMP assay relative to control; assay type: cell-based; settings: Canis lupus familiaris, filed as agonist

SMILES | Activity [1] | Emax [2] | EC50 [3] | Activity [4] | Activity (HEK293)
CC(C)[C@@H]1CC[C@]2(C(=O)O)CC[C@]3(C)[C@H](CC[C@@H]4[C@@]5(C)CC[C@@H](OC(=O)CO)C(C)(C)[C@@H]5CC[C@]43C)[C@@H]12 | inactive | 100% | 27 nM | – | –
CC(C)NC(=O)O[C@@H]1CC[C@]2(C)[C@H]3CC[C@@H]4[C@H]5[C@H](C(C)C)CC[C@]5(C(=O)O)CC[C@@]4(C)[C@]3(C)CC[C@H]2C1(C)C | inactive | 97% | 124 nM | – | –
C[C@H](CCC(=O)O)[C@H]1CC[C@H]2[C@@H]3CC[C@@H]4C[C@H](O)CC[C@]4(C)[C@H]3CC[C@]12C | – | – | – | Active | Active
CNC(=O)O[C@@H]1CC[C@]2(C)[C@H]3CC[C@@H]4[C@H]5[C@H](C(C)C)CC[C@]5(C(=O)O)CC[C@@]4(C)[C@]3(C)CC[C@H]2C1(C)C | inactive | 98% | 17.8 nM | – | –
CC1(C)[C@H](OC(=O)NC2CC2)CC[C@]2(C)[C@H]3CC[C@@H]4[C@H]5[C@H]([C@@]6(C)CO6)CC[C@]5(C(=O)O)CC[C@@]4(C)[C@]3(C)CC[C@@H]12 | inactive | 99% | 18.6 nM | – | –
CO/N=C(/C)[C@@H]1CC[C@]2(C(=O)O)CC[C@]3(C)[C@H](CC[C@@H]4[C@@]5(C)CC[C@@H](OC(=O)NC6CC6)C(C)(C)[C@@H]5CC[C@]43C)[C@@H]12 | inactive | 97% | 132 nM | – | –
CC(C)[C@@H]1CC[C@]2(NC(=O)OCC(=O)O)CC[C@]3(C)[C@H](CC[C@@H]4[C@@]5(C)CC[C@@H](OC(=O)NC6CC6)C(C)(C)[C@@H]5CC[C@]43C)[C@@H]12 | inactive | 98% | 271 nM | – | –
CCOC(=O)O[C@@H]1CC[C@]2(C)[C@H]3CC[C@@H]4[C@H]5[C@H](C(C)C)CC[C@]5(C(=O)O)CC[C@@]4(C)[C@]3(C)CC[C@H]2C1(C)C | inactive | 92% | 80 nM | – | –
CNS(=O)(=O)O[C@@H]1CC[C@]2(C)[C@H]3CC[C@@H]4[C@H]5[C@H](C(C)C)CC[C@]5(C(=O)O)CC[C@@]4(C)[C@]3(C)CC[C@H]2C1(C)C | inactive | 99% | 45.4 nM | – | –
CC(C)[C@@H]1CC[C@]2(C(=O)O)CC[C@]3(C)[C@H](CC[C@@H]4[C@@]5(C)CC[C@@H](OC(N)=O)C(C)(C)[C@@H]5CC[C@]43C)[C@@H]12 | inactive | 100% | 30.7 nM | – | –
CC(C)[C@@H]1CC[C@]2(C(=O)OCC(=O)O)CC[C@]3(C)[C@H](CC[C@@H]4[C@@]5(C)CC[C@@H](OC(=O)NC6CC6)C(C)(C)[C@@H]5CC[C@]43C)[C@@H]12 | inactive | 98% | 306 nM | – | –
CC(C)[C@@H]1CC[C@]2(N)CC[C@]3(C)[C@H](CC[C@@H]4[C@@]5(C)CC[C@@H](OC(=O)NC6CC6)C(C)(C)[C@@H]5CC[C@]43C)[C@@H]12 | inactive | 97% | 867 nM | – | –
CCN(C)C(=O)O[C@@H]1CC[C@]2(C)[C@H]3CC[C@@H]4[C@H]5[C@H](C(C)C)CC[C@]5(C(=O)O)CC[C@@]4(C)[C@]3(C)CC[C@H]2C1(C)C | inactive | 92% | 211 nM | – | –
CC(C)[C@@H]1CC[C@]2(NC(=O)NCC(=O)O)CC[C@]3(C)[C@H](CC[C@@H]4[C@@]5(C)CC[C@@H](OC(=O)NC6CC6)C(C)(C)[C@@H]5CC[C@]43C)[C@@H]12 | inactive | 99% | 174 nM | – | –
CC(C)[C@@H]1CC[C@]2(C(=O)O)CC[C@]3(C)[C@H](CC[C@@H]4[C@@]5(C)CC[C@@H](OC(=O)Nc6ccc(F)cc6)C(C)(C)[C@@H]5CC[C@]43C)[C@@H]12 | inactive | 75% | 1510 nM | – | –
C[C@@H](O)[C@@H]1CC[C@]2(C(=O)O)CC[C@]3(C)[C@H](CC[C@@H]4[C@@]5(C)CC[C@@H](OC(=O)NC6CC6)C(C)(C)[C@@H]5CC[C@]43C)[C@@H]12 | inactive | 99% | 38 nM | – | –
C[C@H](CCC(=O)O)[C@H]1CC[C@H]2[C@@H]3[C@H](O)C[C@@H]4C[C@H](O)CC[C@]4(C)[C@H]3C[C@H](O)[C@]12C | – | – | – | Active | Active
CC(C)[C@@H]1CC[C@]2(C(=O)O)CC[C@]3(C)[C@H](CC[C@@H]4[C@@]5(C)CC[C@@H](OC(=O)NC6CCC6)C(C)(C)[C@@H]5CC[C@]43C)[C@@H]12 | inactive | 92% | 26.7 nM | – | –
CC(C)[C@@H]1CC[C@]2(C(=O)NCC(=O)O)CC[C@]3(C)[C@H](CC[C@@H]4[C@@]5(C)CC[C@@H](OC(=O)NC6CC6)C(C)(C)[C@@H]5CC[C@]43C)[C@@H]12 | inactive | 96% | 380 nM | – | –
COCC(=O)O[C@@H]1CC[C@]2(C)[C@H]3CC[C@@H]4[C@H]5[C@H](C(C)C)CC[C@]5(C(=O)O)CC[C@@]4(C)[C@]3(C)CC[C@H]2C1(C)C | inactive | 100% | 25.2 nM | – | –
CC(C)[C@@H]1CC[C@]2(C(=O)O)CC[C@]3(C)[C@H](CC[C@@H]4[C@@]5(C)CC[C@@H](OC(=O)NC6CCCC6)C(C)(C)[C@@H]5CC[C@]43C)[C@@H]12 | inactive | 92% | 29.2 nM | – | –
CCNC(=O)O[C@@H]1CC[C@]2(C)[C@H]3CC[C@@H]4[C@H]5[C@H](C(C)C)CC[C@]5(C(=O)O)CC[C@@]4(C)[C@]3(C)CC[C@H]2C1(C)C | inactive | 100% | 13 nM | – | –
CCCS(=O)(=O)O[C@@H]1CC[C@]2(C)[C@H]3CC[C@@H]4[C@H]5[C@H](C(C)C)CC[C@]5(C(=O)O)CC[C@@]4(C)[C@]3(C)CC[C@H]2C1(C)C | inactive | 98% | 77.6 nM | – | –
CC(C)[C@@H]1CC[C@]2(C(=O)O)CC[C@]3(C)[C@H](CC[C@@H]4[C@@]5(C)CC[C@@H](OC(=O)Nc6cc[nH]n6)C(C)(C)[C@@H]5CC[C@]43C)[C@@H]12 | inactive | 94% | 175 nM | – | –
CC(C)[C@@H]1CC[C@]2(C(=O)O)CC[C@]3(C)[C@H](CC[C@@H]4[C@@]5(C)CC[C@@H](OC(=O)N6CCOCC6)C(C)(C)[C@@H]5CC[C@]43C)[C@@H]12 | inactive | 95% | 452 nM | – | –
COc1ccc(NC(=O)O[C@@H]2CC[C@]3(C)[C@H]4CC[C@@H]5[C@H]6[C@H](C(C)C)CC[C@]6(C(=O)O)CC[C@@]5(C)[C@]4(C)CC[C@H]3C2(C)C)cc1 | inactive | 91% | 230 nM | – | –
CCNS(=O)(=O)O[C@@H]1CC[C@]2(C)[C@H]3CC[C@@H]4[C@H]5[C@H](C(C)C)CC[C@]5(C(=O)O)CC[C@@]4(C)[C@]3(C)CC[C@H]2C1(C)C | inactive | 98% | 68.6 nM | – | –
CCCNC(=O)O[C@@H]1CC[C@]2(C)[C@H]3CC[C@@H]4[C@H]5[C@H](C(C)C)CC[C@]5(C(=O)O)CC[C@@]4(C)[C@]3(C)CC[C@H]2C1(C)C | inactive | 96% | 26.9 nM | – | –
CC(=O)[C@@H]1CC[C@]2(C(=O)O)CC[C@]3(C)[C@H](CC[C@@H]4[C@@]5(C)CC[C@@H](OC(=O)NC6CC6)C(C)(C)[C@@H]5CC[C@]43C)[C@@H]12 | inactive | 100% | 13.1 nM | – | –
CC(C)[C@@H]1CC[C@]2(C(=O)O)CC[C@]3(C)[C@H](CC[C@@H]4[C@@]5(C)CC[C@@H](OC(=O)NC6CC6)C(C)(C)[C@@H]5CC[C@]43C)[C@@H]12 | inactive | 99% | 10.1 nM | – | –
